Experiments:
[1] = tested on: mitophagy marker genes (VDAC, Parkin, PINK); test: Expression of mitophagy marker genes (VDAC, Parkin, PINK) by RT-PCR; format: cell-based; conditions: fibroblasts, hydrocortisone 10 μM and MELASOLV 5.5 μg/ml for 24 hours; FIGS. 3 to 5
Experimental: Fibroblasts were seeded in 10 cm^2 cell culture dishes at a concentration of 3×10^5 cells/dish and cultured in 10 ml of minimum essential medium eagle (MEM) medium containing 10% fetal bovine serum (FBS) and 1% penicillin streptomycin. After 24 hours, the cells reached approximately 70%, and the cells were treated with (1) DMSO (control), (2) hydrocortisone (10 μM) alone, or (3) hydrocortisone (10 μM) and MELASOLV™ (5.5 μg/ml) for 24 hours.
RNA was extracted with easy-BLUE (INTRON) reagent. cDNA samples were generated from 0.5 μg of RNA using PrimeScript RT reagent Kit. The generated cDNA was amplified using ACCUPOWER™ PCR Premix. The PCR products were further analyzed using PCR Thermal Cycler Dice.
It was confirmed through a […] in the expression of mitophagy marker genes (VDAC, Parkin, PINK) whether it contributes to the activation of mitophagy which removes unnecessary elements from mitochondria.

skin fibroblasts = test: Mitochondrial activity: maximal oxygen consumption rate (OCR), Seahorse XF cell mitochondrial stress test; format: cell-based
Description: Specifically, the Seahorse XF Pro analyzer equipment from Agilent was used, and the mitochondrial activity (ATP energy production efficiency), i.e., the maximal oxygen consumption rate (OCR), was observed according to the standard protocol provided with the Seahorse XF cell mitochondrial stress measurement kit provided by the company (FIG. 2).

[2] = hydrocortisone 10 uM 24 hours, MELASOLV 5 ppm 24 hours, FIG. 2

COc1cc(/C=C/C(=O)Oc2cc(C)ccc2C(C)C)cc(OC)c1OC [MELASOLV™, (5-methyl-2-propan-2-ylphenyl) (E)-3-(3,4,5-trimethoxyphenyl) prop-2-enoate]
expression of mitophagy genes (VDAC, Parkin, PINK) [1]: increased
maximal respiration (OCR) compared to the control group not treated with anything (skin fibroblasts; [2]): increased higher
maximal respiration (maximal oxygen consumption rate, OCR) compared to treatment with only hydrocortisone (skin fibroblasts; [2]): statistically significantly higher
cell respiration rate (OCR) reduced by hydrocortisone, effect of treatment (skin fibroblasts; hydrocortisone 10 uM, MELASOLV 5 ppm 24 hours): recovered

C[C@]12CCC(=O)C=C1CC[C@@H]1[C@@H]2[C@@H](O)C[C@@]2(C)[C@H]1CC[C@]2(O)C(=O)CO [hydrocortisone, reference compound]
cell respiration rate (OCR) compared to the control group (Ctrl) (skin fibroblasts; hydrocortisone 10 uM 24 hours alone (stress-induced condition)): reduced

From US20250082557A1, “COMPOSITION FOR ENHANCING SKIN VITALITY CONTAINING A THYMOL ESTER-BASED COMPOUND” (Amorepacific Corporation, priority 2023, published 2025)
